# Activity calls are given as the source filed them.
# What was measured:
# [1] = target: T1, Carboxy-terminal domain RNA polymerase II polypeptide A small phosphatase 1 (Homo sapiens, UniProt Q9GZU7); assay: CTDSP1 inhibitors, concentration-response, biochemical, absorbance readout, ultra-high-throughput screen actives (AID 540297); format: functional
# T1 sequence (Q9GZU7 whole entry): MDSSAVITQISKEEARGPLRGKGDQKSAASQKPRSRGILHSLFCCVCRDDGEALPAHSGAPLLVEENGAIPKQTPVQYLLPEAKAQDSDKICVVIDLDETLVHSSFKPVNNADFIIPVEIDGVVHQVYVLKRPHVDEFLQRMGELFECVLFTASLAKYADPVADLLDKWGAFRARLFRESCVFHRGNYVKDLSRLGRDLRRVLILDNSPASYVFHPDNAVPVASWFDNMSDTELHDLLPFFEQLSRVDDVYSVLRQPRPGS
# Leucine aminopeptidase = target: T2, Leucine aminopeptidase (Plasmodium falciparum 3D7, UniProt Q8IL11); assay: P. falciparum M17LAP inhibitors, primary screen, biochemical, fluorogenic H-Leu-NHMec substrate, 1536-well (AID 1619); format: functional
# T2 sequence (Q8IL11 whole entry): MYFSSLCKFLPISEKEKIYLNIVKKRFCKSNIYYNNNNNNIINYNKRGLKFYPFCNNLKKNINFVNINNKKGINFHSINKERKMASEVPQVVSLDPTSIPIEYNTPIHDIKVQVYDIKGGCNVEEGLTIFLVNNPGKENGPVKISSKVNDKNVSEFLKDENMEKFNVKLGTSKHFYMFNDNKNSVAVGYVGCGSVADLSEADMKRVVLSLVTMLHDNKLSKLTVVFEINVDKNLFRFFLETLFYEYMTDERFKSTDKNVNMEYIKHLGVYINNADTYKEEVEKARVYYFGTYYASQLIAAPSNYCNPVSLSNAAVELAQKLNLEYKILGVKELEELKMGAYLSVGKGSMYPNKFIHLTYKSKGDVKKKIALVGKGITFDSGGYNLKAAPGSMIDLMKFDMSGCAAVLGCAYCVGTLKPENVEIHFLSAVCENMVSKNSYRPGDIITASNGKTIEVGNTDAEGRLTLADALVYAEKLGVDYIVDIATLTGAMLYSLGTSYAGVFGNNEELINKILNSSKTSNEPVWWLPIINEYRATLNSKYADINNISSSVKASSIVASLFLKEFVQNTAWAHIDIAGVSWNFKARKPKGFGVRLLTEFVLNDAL
# Paired box protein Pax-8 = Paired box protein Pax-8 (Homo sapiens, UniProt Q06710); assay: PAX8 transcriptional activity inhibition in RMG-I – RMG-I cells, luciferase, cherry-pick, dose response (AID 687027); format: functional, cell-based;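 further: luciferase reporter driven by Pax8 target thyroperoxidase promoter measured by SteadyGlo luminescence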
# Sequence of Paired box protein Pax-8 (Q06710 whole entry): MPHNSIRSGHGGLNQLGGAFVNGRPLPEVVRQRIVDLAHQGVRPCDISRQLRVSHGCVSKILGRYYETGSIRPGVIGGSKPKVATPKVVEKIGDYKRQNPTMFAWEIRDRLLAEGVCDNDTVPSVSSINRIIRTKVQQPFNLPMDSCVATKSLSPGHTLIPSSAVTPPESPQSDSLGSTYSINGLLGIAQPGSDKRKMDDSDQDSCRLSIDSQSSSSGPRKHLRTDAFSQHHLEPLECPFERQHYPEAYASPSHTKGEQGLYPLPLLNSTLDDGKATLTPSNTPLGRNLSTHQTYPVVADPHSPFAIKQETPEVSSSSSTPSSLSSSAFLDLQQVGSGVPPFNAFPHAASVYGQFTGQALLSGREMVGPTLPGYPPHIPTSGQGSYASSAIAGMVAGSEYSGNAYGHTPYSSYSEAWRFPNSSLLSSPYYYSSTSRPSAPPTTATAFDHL
# [2] = IGROV1 cell killing – plate reader, dry powder samples, PAX8 inhibitor project, dose response (AID 743043); format: functional, cell-based; conditions: IGROV-1
# [3] = OVCAR8 cell viability loss – plate reader, dry powder samples, PAX8 project, dose response (AID 743197); format: functional, cell-based; conditions: OVCAR-8
# [4] = target: T3, Sentrin-specific protease 1 (Homo sapiens, UniProt Q9P0U3); assay: Dose response confirmation of small molecule inhibitors of the catalytic domain of the SUMO protease, SENP1 in a FRET assay.; format: functional; conditions: read-out: IC50_Mean
# T3 sequence (Q9P0U3 whole entry): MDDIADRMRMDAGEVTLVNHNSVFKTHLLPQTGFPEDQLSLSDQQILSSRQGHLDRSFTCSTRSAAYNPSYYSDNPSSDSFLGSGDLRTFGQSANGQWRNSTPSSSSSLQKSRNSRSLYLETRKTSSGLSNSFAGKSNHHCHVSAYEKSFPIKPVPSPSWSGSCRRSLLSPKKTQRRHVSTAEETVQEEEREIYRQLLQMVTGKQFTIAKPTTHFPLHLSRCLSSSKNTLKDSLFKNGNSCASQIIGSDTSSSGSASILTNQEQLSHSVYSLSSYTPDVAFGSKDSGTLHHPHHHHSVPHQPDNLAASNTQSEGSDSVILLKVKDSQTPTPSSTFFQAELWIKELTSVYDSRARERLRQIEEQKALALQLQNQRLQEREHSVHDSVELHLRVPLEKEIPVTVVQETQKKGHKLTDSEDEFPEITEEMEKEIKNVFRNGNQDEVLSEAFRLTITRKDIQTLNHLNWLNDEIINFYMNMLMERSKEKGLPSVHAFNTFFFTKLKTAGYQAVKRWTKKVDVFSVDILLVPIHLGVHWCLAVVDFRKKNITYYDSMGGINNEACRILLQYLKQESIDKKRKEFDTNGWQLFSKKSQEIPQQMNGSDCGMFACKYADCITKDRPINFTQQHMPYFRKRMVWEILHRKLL
# [5] = target: T3, Sentrin-specific protease 1; assay: SENP1 catalytic domain blockers, concentration series – biochemical, kinetic FRET, dose response (AID 651697); format: functional; conditions: read-out: IC50_Mean
# [6] = viability of uninfected HEp-2 cells – cell-based, HTS, cytotoxicity control for RSV inhibitor project, dose response (AID 2410); format: functional; conditions: human respiratory syncytial virus
# [7] = target: T4, Long-chain-fatty-acid--AMP ligase FadD28 (Mycobacterium tuberculosis, UniProt P9WQ59); assay: Fluorescence polarization aasay to screen for inhibitors that compete for the binding of FadD28 to a bisubstrate Measured in Biochemical System Using Plate Reader - 2147-01_Inhibitor_Dose_CherryPick_Activity.; format: functional, Mycobacterium tuberculosis H37Rv
# T4 sequence (P9WQ59 whole entry): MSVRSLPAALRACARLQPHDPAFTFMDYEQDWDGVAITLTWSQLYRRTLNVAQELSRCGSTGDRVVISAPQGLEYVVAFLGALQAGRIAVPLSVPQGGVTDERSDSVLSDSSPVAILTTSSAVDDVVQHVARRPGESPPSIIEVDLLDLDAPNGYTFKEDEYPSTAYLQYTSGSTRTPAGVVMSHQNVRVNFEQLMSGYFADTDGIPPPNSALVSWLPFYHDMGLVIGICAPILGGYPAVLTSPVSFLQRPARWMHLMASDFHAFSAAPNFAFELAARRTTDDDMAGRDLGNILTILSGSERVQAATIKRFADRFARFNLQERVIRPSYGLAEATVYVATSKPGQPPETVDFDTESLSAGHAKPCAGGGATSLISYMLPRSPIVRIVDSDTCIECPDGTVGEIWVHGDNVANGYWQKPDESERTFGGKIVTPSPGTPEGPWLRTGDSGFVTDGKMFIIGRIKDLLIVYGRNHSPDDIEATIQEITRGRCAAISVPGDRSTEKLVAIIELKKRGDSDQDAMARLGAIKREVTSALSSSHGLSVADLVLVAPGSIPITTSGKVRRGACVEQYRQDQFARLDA
compound,measurement,setting,value
O=C(O)c1ccc(/C=N/NC(=O)c2cc(-c3ccc4c5c(cccc35)CC4)[nH]n2)cc1,IC50,[1],4.31 µM (active)
same,IC50,Leucine aminopeptidase,26.8 µM (active)
C[C@H]1CN([C@@H](C)CO)C(=O)c2c(c3ccccc3n2C)-c2ccccc2CO[C@@H]1CN(C)Cc1cccc(C(F)(F)F)c1,AC50,Paired box protein Pax-8,9.89 µM (active)
same,AC50,[2],53 µM (active)
same,AC50,[3],43.7 µM (active)
COc1ccc(C2C(C(C)=O)=C(C)N=c3s/c(=C\c4ccco4)c(=O)n32)c(OC)c1 (centres undefined),IC50,[4],20.2 µM (inactive)
same,IC50,[5],24.9 µM (inactive)
COc1ccccc1NC(=O)Nc1nn(C)c2cccc(OC)c12,CC50,[6],41.1 µM (active)
same,IC50,cells,41.2 µM (active)
C[C@@H]1CCCCO[C@@H](CN(C)Cc2ccc(Cl)c(Cl)c2)[C@H](C)CN([C@H](C)CO)C(=O)c2cc(NC(=O)Nc3ccc(F)cc3)ccc2O1,AC50,Paired box protein Pax-8,5.06 µM (active)
same,AC50,[3],> 70 µM (inactive)
C/C(CCC1CC(C)OC1=O)=N/Nc1nc(-c2ccccc2)cs1 (centres undefined),IC50,Leucine aminopeptidase,30.8 µM (active)
O=C(COc1ncnc2c1cnn2-c1ccccc1)Nc1ccc(S(=O)(=O)N2CCCCC2)cc1,AC50,[7],> 100 µM (inactive)
COc1ccc(/C=C2\CCCc3c2nc2ccc(C)cc2c3C(=O)O)cc1O,AC50,[7],79.3 µM (active)
